# From paper PMC4923153, “Protection of Primary Dopaminergic Midbrain Neurons by GPR139 Agonists Supports Different Mechanisms of MPP^+ and Rotenone Toxicity” (Frontiers in Cellular Neuroscience, 2016)
# How the values were obtained:
# [1] = tested on: primary DA midbrain neurons; assay: Protection of primary DA midbrain neurons against MPP+ toxicity (TH-positive neuron count); assay type: cell-based, mice; settings: 1 μM MPP+ 24 h
# Description: Experiments were conducted in accordance with the ethical guidelines of H. Lundbeck A/S and the Danish legislation of animal use for scientific procedures. Cell culture was basically performed as described (Nagel et al., [2008]), with few modifications. Briefly, the mesencephalon floor was dissected from embryonic day (E) 13 mice, tissue pieces collected in HBBS, transferred to 0.1% trypsin, 0.05% DNAse (Sigma-Aldrich DN25–1G) and incubated at 37°C in a humidified atmosphere with 5% CO2 for 20 min; washed in DNAse, homogenized and centrifuged at 200× g, resuspended in medium (DMEM (Gibco 41965–039), 10% FCS, 1% P/S (Gibco, 15140–122), l.5% HEPES (Gibco, 15630–056), 1% Sodium Pyruvate (Gibco, 11360–039)) and plated on poly-L-lysine coated 96-well dishes. The medium was switched to neurobasal medium after 90 min (neurobasal (Gibco 21103–049) with 1% P/S, 2% B27 (Gibco, 17504–044), 1.25% 0.5 mM L-glutamine (Gibco, 25030–024)). After 6 days in vitro (DIV), cultures were treated with 1 μM of three different GPR139 agonists and in some experiments, concomitantly, with 10 μM of the antagonist for1 h, before exposing them to 0–1 μM MPP^+, 0–50 μM 6-OHDA or 0–100 nM rotenone for 24 h. For the MPP^+ treated cultures, it was also tested whether the effect of the GPR139 agonists could be blocked by concomitantly applying 10 μM GPR139 antagonist (IC50 3 μM). Subsequently, cells were fixed in 4% PFA/PBS for 10 min, washed with PBS, incubated in 0.5% BSA/0.1% Triton-X/5% porcine serum for 20 min, and incubated for 24 h in rabbit anti-tyrosine hydroxylase antibodies (1:1000 in PBS, Millipore AB152); washed 2 × 5 min in PBS. Secondary antibodies (Alexa 488 rabbit) were applied 1:200 in PBS with 0.2 μg/ml Hoechst dye for 1 h and washed 2 × 5 min in PBS. One drop of DAKO fluorescent mounting medium were applied into each well. Plates were stored at 4°C until tyrosine-hydroxylase-positive (TH-positive) neurons were counted using a Thermo Scientific Cellomics® ArrayScan® VTI HCS Reader. Results were normalized against control condition and compared. Experiments were only included in the evaluation if at least 30% cell death was induced at the highest toxin concentration compared to non-treated control wells. To ensure that only healthy primary cultures were assessed, we furthermore excluded experiments with total cell counts below Mean minus standard deviation (SD) of the summarized experiments. […]
# To examine whether GPR139 agonists protect against toxin-induced DA cell death, we first treated cultured DA midbrain neurons with the GPR139 agonists and MPP^+ . Subsequently, we determined survival of TH-positive neurons.
# Figure 8 Three different GPR139 surrogate agonists protect primary dopaminergic (DA) midbrain neurons against 1-methyl-4-phenyl-pyridinium ionMPP^+ toxicity. […] TH-positive neurons were counted and normalized to numbers under control conditions. […] Each data point is calculated from 12 (0 μM and 1 μM MPP^+ concentrations); 4 (0.125 μM); 7 (0.25 μM); or 8 (0.5 μM) independent measurements.
# Primary midbrain cultures were pretreated with the indicated amount of GPR139 agonist compound 3 and with either vehicle ( [drawing 5] ), or 1 μM MPP^+ ( [drawing 6] ); or MPP^+ with 10 μM of the antagonist compound 4 ( [drawing 7] ), or with the antagonist compound 4 alone ( [drawing 8] ). The number of TH-positive neurons was determined 24 h later and normalized to control conditions. […]
# [2] = tested on: primary DA midbrain neurons; assay: Protection of primary DA midbrain neurons against 6-OHDA toxicity (TH-positive neuron count); assay type: cell-based, mice; settings: 1 μM agonist 1 h, 0-50 μM 6-OHDA 24 h
# Description: (§1) Experiments were conducted in accordance with the ethical guidelines of H. Lundbeck A/S and the Danish legislation of animal use for scientific procedures. Cell culture was basically performed as described (Nagel et al., [2008]), with few modifications. […] Plates were stored at 4°C until tyrosine-hydroxylase-positive (TH-positive) neurons were counted using a Thermo Scientific Cellomics® ArrayScan® VTI HCS Reader. […] To ensure that only healthy primary cultures were assessed, we furthermore excluded experiments with total cell counts below Mean minus standard deviation (SD) of the summarized experiments. […]
# Neuronal midbrain cultures were pretreated with 1 μM of either one of the agonists compound 1 ( [drawing 9] ), compound 2 ( [drawing 10] ), or compound 3 ( [drawing 11] ), or vehicle ( [drawing 12] ) for 1 h, followed by treatment with the indicated concentrations of 6-hydroxydopamine (6-OHDA) for 24 h. TH-positive neurons were counted and normalized to control numbers.
# [3] = tested on: primary DA midbrain neurons; assay: Protection of primary DA midbrain neurons against rotenone toxicity (TH-positive neuron count); assay type: cell-based, mice; settings: 1 μM agonist 1 h, 0-100 nM rotenone 24 h, n = 4
# Description: as §1
# Mesencephalic cultures were treated with 1 μM of either one of the GPR139 agonists compound 1 ( [drawing 13] ), compound 2 ( [drawing 14] ), or compound 3 ( [drawing 15] ), or vehicle ( [drawing 16] ) for 1 h before exposing them to 0–100 nM of rotenone. […] TH-positive neurons were counted and normalized to control numbers (100%).
# DAT = DAT (Homo sapiens, UniProt Q01959); assay: Inhibition of binding to the DAT (cross reactivity); settings: concentration not given
# Description: (§2) None of the compounds were useful in vivo tools due to their unfavorable ADME properties including low whole brain exposure and brain/plasma ratio (Shi et al., [2011]). Cross reactivity with the DAT or the norepinephrine transporter was determined as described (Shi et al., [2011]).
# (§3) As both 6-OHDA and MPP^+ are taken up via the DAT, it was not likely that the agonists mediated their protection against MPP^+ by merely blocking the DAT. However, to further exclude the possibility that the protection against MPP^+ by the agonist compound 3 is mediated by blocking MPP^+ uptake, rather than signaling through GPR139, DA and noradrenaline uptake in the presence of the agonist was tested. […] Ten micrometres (10 μM) compound 1 inhibited binding to the DAT or the norepinephrine transporter by 4% or −8%, respectively (Shi et al., [2011]) compound 2 inhibited binding to the DAT or the norepinephrine transporter 2% or −4%, respectively.
# [4] = target: norepinephrine transporter (Homo sapiens, UniProt P23975); assay: Inhibition of binding to the norepinephrine transporter (cross reactivity); settings: concentration not given
# Description: as §2, §3
# Sequence of norepinephrine transporter (P23975 whole entry, species assumed): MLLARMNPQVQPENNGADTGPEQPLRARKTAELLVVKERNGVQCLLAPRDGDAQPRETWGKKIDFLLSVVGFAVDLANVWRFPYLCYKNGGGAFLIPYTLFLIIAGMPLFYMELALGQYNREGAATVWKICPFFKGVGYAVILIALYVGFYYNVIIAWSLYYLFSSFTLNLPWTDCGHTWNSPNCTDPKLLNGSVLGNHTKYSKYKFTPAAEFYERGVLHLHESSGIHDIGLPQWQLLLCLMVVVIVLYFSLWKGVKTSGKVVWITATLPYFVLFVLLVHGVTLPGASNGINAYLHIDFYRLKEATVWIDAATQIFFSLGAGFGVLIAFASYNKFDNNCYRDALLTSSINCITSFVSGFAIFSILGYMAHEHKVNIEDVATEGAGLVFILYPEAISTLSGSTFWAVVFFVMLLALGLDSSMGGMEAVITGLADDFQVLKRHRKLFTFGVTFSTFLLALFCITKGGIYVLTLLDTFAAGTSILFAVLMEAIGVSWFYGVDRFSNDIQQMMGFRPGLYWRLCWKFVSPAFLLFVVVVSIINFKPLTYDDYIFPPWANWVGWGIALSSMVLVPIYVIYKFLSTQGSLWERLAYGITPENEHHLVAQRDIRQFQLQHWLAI
# Sequence of DAT (Q01959 whole entry, species assumed): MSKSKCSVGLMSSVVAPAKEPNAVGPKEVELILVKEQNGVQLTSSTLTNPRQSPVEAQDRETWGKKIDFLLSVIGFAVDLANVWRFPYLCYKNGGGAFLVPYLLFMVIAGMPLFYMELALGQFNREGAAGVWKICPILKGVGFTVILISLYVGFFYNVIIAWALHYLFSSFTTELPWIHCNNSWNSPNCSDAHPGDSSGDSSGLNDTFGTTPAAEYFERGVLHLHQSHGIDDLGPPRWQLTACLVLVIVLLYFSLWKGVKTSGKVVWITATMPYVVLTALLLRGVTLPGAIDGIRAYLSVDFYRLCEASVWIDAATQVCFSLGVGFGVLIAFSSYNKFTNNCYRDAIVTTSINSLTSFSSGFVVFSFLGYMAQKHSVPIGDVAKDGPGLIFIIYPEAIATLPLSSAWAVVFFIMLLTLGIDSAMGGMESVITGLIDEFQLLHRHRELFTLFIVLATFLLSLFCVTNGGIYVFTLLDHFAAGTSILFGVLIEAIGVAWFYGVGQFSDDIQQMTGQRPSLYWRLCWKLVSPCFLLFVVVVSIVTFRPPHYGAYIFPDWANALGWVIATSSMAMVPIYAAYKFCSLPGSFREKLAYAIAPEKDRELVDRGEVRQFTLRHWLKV
smiles,measurement,setting,value
"CN(C)C1CCN(C(=O)CNC(=O)Cc2cccc3ccccc23)C1 (stereo not drawn) [compound 2, N-[2-(3-Dimethylamino-pyrrolidin-1-yl)-2-oxo-ethyl]-2-Naphthalen-1-yl-acetamide]",protection against MPP+ toxicity,"[1]; 1 μM agonist 1 h, p ≤ 0.05 vs vehicle",significant
same,cells killed by 1 μM MPP+ that were rescued,"[1]; 1 μM compound pre-incubation 1 h, TH-positive neurons",40.5%
same,protection against 6-OHDA toxicity,[2],do not protect
same,protection against rotenone toxicity,[3],do not protect
same,inhibition of binding to the DAT,DAT,2%
same,inhibition of binding to the norepinephrine transporter,[4],−4%
